Measurements published in patent publication US20070071778A1 (ISP INVESTMENTS INC., priority 2005, published 2007).

Tested on: mixed fungal inoculum (Aspergillus niger, Penicillium funiculosum and Stachybotrys chartarum)
Assay: Fungicidal efficacy on water saturated gypsum boards
Assay type: cell-based
Design: key: Presence (+); Absence (−) of Fungal Growth
Settings: gypsum board, 1,000 ppm triclosan, 28° C., 80% RH, 30-45 days
Protocol: The compositions of Example 9 were diluted to 1,000 ppm of triclosan. Then both sides of a gypsum board (cream and grey) sample (2×2×½ in.) were brush coated with each formulation and allowed to dry for 24 hours. The Controls were gypsum boards treated with only water or with only 1,000 ppm of triclosan in dimethyl sulfamide. The treated gypsum boards were then placed on a Petri dish and water was added to saturate the board. The water saturated gypsum boards were then inoculated with a mixed fungal inoculum (Aspergillus niger, Penicillium funiculosum and Stachybotrys chartarum) containing ca. 10^5 spores/ml. The samples were incubated at 28° C., 80% RH for 30-45 days and rated for the presence or absence of fungal growth thereon. Samples showing no growth were re-inoculated and incubated for another 30-45 days.

Oc1cc(Cl)ccc1Oc1ccc(Cl)cc1Cl [Triclosan, triclosan]
Presence (+)/Absence (−) of Fungal Growth, Cream Side: + | Presence (+)/Absence (−) of Fungal Growth, Grey Side: +
